Measured values from paper PMC11926855, “Photochemistry of Receptor-Bound Flavin Resolved in Living Human Cells by Infrared Spectroscopy” (Journal of the American Chemical Society, 2025).

What was measured:
[1] = molecular target: T1, pCRY-PHR (Chlamydomonas reinhardtii, UniProt Q42696); assay: light-induced in-cell ATR-FTIR difference spectroscopy (ICIRD); format: cell-based; conditions: living HEK cells, 37 °C, blue light; noncovalent; oxidized flavin to flavin neutral radical
T1 construct: gene CPH1; photolyase homology region (PHR) without CCT, mCherry fused as reporter; stably transfected HEK cells, also E. coli cells

[2] = molecular target: T2, LOV (LOV sensor of aureochrome1a) (Phaeodactylum tricornutum, UniProt A0A140UHJ0, I28V, form not given); assay: as above; format: cell-based; conditions: living HEK cells, 37 °C, blue light; covalent photoadduct with Cys287 on illumination, noncovalent in dark; also in vitro and E. coli cells
T2 construct: isolated LOV sensor domain without bZIP effector; transiently transfected HEK cells, also E. coli cells and in vitro

[3] = molecular target: T3, LOV (LOV sensor of aureochrome1a) (Phaeodactylum tricornutum, UniProt A0A140UHJ0, I28V); assay: light-induced FTIR difference spectroscopy in vitro; format: binding; conditions: wild type compared with I264V; covalent photoadduct with Cys287 on illumination
T3 construct: isolated LOV sensor domain without bZIP effector; transiently transfected HEK cells, also E. coli cells and in vitro
T3 sequence (A0A140UHJ0 entry or part of it I28V): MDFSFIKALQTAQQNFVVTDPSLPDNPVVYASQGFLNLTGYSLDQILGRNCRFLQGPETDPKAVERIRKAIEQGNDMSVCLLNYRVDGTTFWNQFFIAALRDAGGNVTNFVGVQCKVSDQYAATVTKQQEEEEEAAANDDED

T1 sequence (Q42696 entry or part of it): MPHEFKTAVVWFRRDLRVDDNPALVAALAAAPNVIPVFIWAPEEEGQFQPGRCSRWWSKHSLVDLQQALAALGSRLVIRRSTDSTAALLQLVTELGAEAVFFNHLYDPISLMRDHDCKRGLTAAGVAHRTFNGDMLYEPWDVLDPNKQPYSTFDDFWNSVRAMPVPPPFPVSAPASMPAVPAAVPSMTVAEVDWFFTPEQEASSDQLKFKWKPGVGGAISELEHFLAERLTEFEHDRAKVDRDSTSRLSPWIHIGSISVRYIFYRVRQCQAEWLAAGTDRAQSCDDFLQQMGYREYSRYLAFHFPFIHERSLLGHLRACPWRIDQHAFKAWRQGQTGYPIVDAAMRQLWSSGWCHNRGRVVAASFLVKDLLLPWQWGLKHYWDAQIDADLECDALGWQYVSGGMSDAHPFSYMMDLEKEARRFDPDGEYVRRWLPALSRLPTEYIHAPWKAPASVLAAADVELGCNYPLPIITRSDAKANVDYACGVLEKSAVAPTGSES
T2 sequence (A0A140UHJ0 entry or part of it I28V, form open): as the sequence (A0A140UHJ0 entry or part of it I28V) above

Structure (SMILES) | light-induced in-cell ATR-FTIR difference spectroscopy (ICIRD) [1] | light-induced in-cell ATR-FTIR difference spectroscopy (ICIRD) [2] | light-induced FTIR difference spectroscopy in vitro [3]
Cc1cc2nc3c(=O)[nH]c(=O)nc-3n(C[C@H](O)[C@H](O)[C@H](O)COP(=O)(O)OP(=O)(O)OC[C@H]3O[C@@H](n4cnc5c(N)ncnc54)[C@H](O)[C@@H]3O)c2cc1C [flavin adenine dinucleotide] | photoreaction of the oxidized flavin to the flavin neutral radical in pCRY-PHR |  | 
Cc1cc2nc3c(=O)[nH]c(=O)nc-3n(C[C@H](O)[C@H](O)[C@H](O)COP(=O)(O)O)c2cc1C [flavin mononucleotide] |  | formation of the cysteine adduct from the oxidized flavin | without altering the mechanism (Figure S6A)
